pIC50, pKd: −log10 of the molar value. Read-outs that look alike come from different tables or passages of the source. One block for each compound: values may come before it.
What was measured:
[1] = tested on: VIM-2-producing P. aeruginosa K34-7; assay: Meropenem MIC, broth microdilution, indicator strain K34-7; type: cell-based; details: meropenem alone or in combination with 50 μM of the labelled inhibitor
Procedure: (§1) MICs of carbapenems alone and in combination with inhibitors were determined by broth microdilution according to the Clinical and Laboratory Standards Institute (CLSI) guidelines ([48]) using either premade plates (TREK Diagnostic Systems/Thermo Fisher Scientific, East Grinstead, United Kingdom) with meropenem or in-house-prepared plates with meropenem, imipenem, and doripenem. ZN148 and other inhibitors were tested at a fixed concentration of 50 μM. Cation-adjusted Mueller-Hinton medium (TREK Diagnostic Systems/Thermo Fisher Scientific; Becton Dickinson, Franklin Lakes, NJ) were used as growth medium. The plates were incubated for 20 h at 37°C. ZN148, ZN222, ZN223, ZN228, and TPA were initially tested in combination with meropenem using two indicator strains: NDM-1-producing K. pneumoniae ([49], [50]) and VIM-2-producing P. aeruginosa ([51]). The activity of ZN148 were subsequently tested against two extended strain collections: (i) in combination with meropenem against MBL-producing Enterobacterales (n = 62), MBL-producing P. aeruginosa (n = 9) and MBL- and class D carbapenemase-coproducing Enterobacterales (n = 5) from the strain collection at the Norwegian National Advisory Unit on Detection of Antimicrobial Resistance and (ii) in combination with meropenem, imipenem, and doripenem against globally collected MBL-producing E. coli (n = 87), K. pneumoniae (n = 85), P. aeruginosa (n = 52), and A. baumannii (n = 6), MBL- and class A/D carbapenemase-coproducing E. coli (n = 11), K. pneumoniae (n = 15) and A. baumannii (n = 7) at IHMA Europe, Sàrl, Switzerland. E. coli ATCC 25922 and P. aeruginosa ATCC 27853 were used as quality control strains. The MBL inhibitors were also tested for intrinsic antibacterial activity against the strains.

[2] = read-out: affinity toward Zn^2+; cited from earlier work
HepG2 cells = assay: In vitro toxicity, alamarBlue viability; type: cell-based, human; details: 24 h
Procedure: The human hepatoblastoma HepG2 cell line (HB-8065; ATCC, Manassas, VA) was cultured in DMEM-GlutaMAX (5.5 mM glucose; Thermo Fisher) supplemented with 10% fetal bovine serum (Sigma-Aldrich), streptomycin (100 μg/ml; Gibco/Thermo Fisher), and penicillin (100 U/ml; Gibco/Thermo Fisher) at 37°C in 5% CO2. For viability assays, cells were seeded in white 96-well Nunclon plates (Sigma-Aldrich) at a density of 20,000 cells/well and left overnight to adhere. ZN148 and TPA (Sigma-Aldrich, Darmstadt, Germany) dissolved in dimethyl sulfoxide (DMSO; (Sigma-Aldrich) were added to the white 96-well plates containing 20,000 HepG2 cells/well at concentrations ranging from 1 to 1 × 10^−3 mM (a DMSO concentration kept below 1%), followed by incubation for 24 h at 37°C in 5% CO2. After 24 h, alamarBlue cell viability reagent (Thermo Fisher, Carlsbad, CA) was added (10% final concentration), followed by incubation for 4 h at 37°C. The proportion of viable cells in each well was measured in a fluorescence plate reader (Clariostar; BMGlabtech, Germany) at excitation 550 nm/emission 603 nm ([56]). Data from eight replicates were fitted by nonlinear regression to determine IC50 values using Prism (GraphPad Software, Inc.).

[3] = tested on: NDM-1-producing K. pneumoniae K66-45; assay: Meropenem MIC, broth microdilution, indicator strain K66-45; type: cell-based; details: meropenem alone or in combination with 50 μM of the labelled inhibitor
Procedure: as §1

[4] = tested on: class A carbapenemase (KPC)-producing E. cloacae; assay: Carbapenem MIC, class A carbapenemase-producing E. cloacae; type: cell-based; details: carbapenem alone or with 50µM ZN148
Procedure: as §1

[5] = tested on: class A carbapenemase (KPC)-producing E. coli; assay: Carbapenem MIC, class A carbapenemase-producing E. coli; type: cell-based; details: carbapenem alone or with 50µM ZN148
Procedure: as §1

[6] = tested on: K. pneumoniae co-producing MBLs and class A/D serine carbapenemases; assay: Carbapenem MIC, K. pneumoniae co-producing MBLs and class D carbapenemases; type: cell-based; details: carbapenem alone or with 50µM ZN148, one value per strain
Procedure: as §1

[7] = tested on: E. coli co-producing MBLs and class A/D serine carbapenemases; assay: Carbapenem MIC, E. coli co-producing MBLs and class A/D serine carbapenemases; type: cell-based; details: carbapenem alone or with 50µM ZN148
Procedure: as §1

[8] = tested on: A. baumannii co-producing MBLs and class A/D serine carbapenemases; assay: Carbapenem MIC, A. baumannii co-producing NDM-1 and class D carbapenemases; type: cell-based; details: carbapenem alone or with 50µM ZN148, one value per strain
Procedure: as §1

[9] = tested on: NDM-1-producing A. baumannii strains (n=6); assay: Carbapenem MIC, NDM-1-producing A. baumannii; type: cell-based; details: carbapenem alone or in combination with 50µM ZN148; one value per strain (n=6)
Procedure: as §1

VIM-2 [10] = molecular target: T1, VIM-2 (Escherichia coli, UniProt Q5U7L7); assay: Time-dependent inactivation kinetics of purified VIM-2 (nitrocefin); type: biochemical
T1 construct: made in house
Procedure: (§2) Protein expression and purification of NDM-1 and VIM-2 were performed as previously described ([36], [43], [57]). Stock solutions of purified NDM-1 and VIM-2 were prepared in 50 mM HEPES buffer (pH 7.5; Merck). Inhibition of NDM-1 and VIM-2 were determined for ZN148 and the analogues ZN222, ZN223, and ZN228 at different concentrations of inhibitor after preincubation times of 2, 8, 15, 25, and 32 min in 50 mM HEPES buffer (pH 7.5) supplemented with 1 μM ZnSO4 (Sigma-Aldrich) and bovine serum albumin (Sigma-Aldrich; final concentration, 2 μg/ml) at 25°C. Concentrations of 1 nM VIM-2 and 30 nM NDM-1 were used, and the reaction was initiated by the addition of 30 μM nitrocefin (Merck) for VIM-2 or 100 μM imipenem (Sigma-Aldrich) for NDM-1. The reaction was measured at 482 nm (VIM-2) or […] (NDM-1) in either standard 96-well plates (Thermo Fisher Scientific) for VIM-2 or UV-transparent 96-well plates (Corning, Kennebunk, ME) for NDM-1 at 25°C in a SpectraMax Plus plate reader (Molecular Devices). All of the enzyme and substrate concentrations indicated are the final concentrations in the assay. The enzyme activity as a percentage was calculated based on the initial velocity and compared to the control without inhibitor compound. All tests were performed at least in duplicates.
(§3) The observed rate constant (kobs) per inhibitor concentration was calculated from the slope of a semilog plot of the enzyme activity in percent versus preincubation time.
(§4) By fitting these values, the irreversible kinetic parameters maximum inactivation rate (kinact) and the inhibitor concentration that produces half-maximal rate of inactivation (KI) were obtained. Finally, the inhibitors were characterized by calculating kinact/KI. Where no saturation curve could be observed, KI and kinact were determined from the linear part of plot 1/kobs versus 1/[I].

NDM-1 = molecular target: T2, NDM-1 (Klebsiella pneumoniae, UniProt C7C422); assay: Time-dependent inactivation kinetics of purified NDM-1 (imipenem); type: biochemical
T2 construct: made in house
Procedure: as §2, §3, §4

VIM-2 [11] = molecular target: T1, VIM-2; type: biochemical; details: after incubation with inhibitor and its removal (PD-10); 100 μM ZnSO4
Procedure: For reversibility of enzyme activity after incubation with ZN148, 3 ml of VIM-2 or NDM-1 was diluted with or without ZN148 in Chelex HEPES buffer (pH 7.5) and subsequently incubated for 1 h on ice. Then, 2.5 ml of each solution was loaded onto an equilibrated PD-10 column (GE Healthcare, Pittsburgh, PA), washed with 1 ml, and eluted with 1.5 ml of Chelex HEPES buffer (pH 7.5), respectively. Samples spiked and not spiked with inhibitor were diluted to a final enzyme concentration of 1 nM VIM-2 and 3 nM NDM-1. The initial reaction velocity was determined by adding nitrocefin (Merck) for VIM-2 or imipenem (Sigma-Aldrich) for NDM-1 at final concentrations of 50 and 100 μM, respectively. The initial enzyme reactions were recorded at 25°C. Inhibitor and enzyme alone were included as controls. All measurements were performed at least in duplicates. For enzyme restorability, pre- and postcolumn samples were supplemented with ZnSO4 (Sigma-Aldrich) to a final concentration of 100 μM and allowed to incubate for 5 min at 25°C. The initial enzyme velocity was then determined as described above.

VIM-2 [12] = molecular target: T1, VIM-2; type: biochemical; details: VIM-2 preincubated with inhibitor
Procedure: VIM-2 (0.4 μM) was preincubated on ice for 30 min with or without ZN148. Complete protein unfolding was archived in 50 mM HEPES buffer (pH 7.5) supplemented with 1 μM ZnSO4 (Sigma-Aldrich) and 8 M urea (Merck, Darmstadt, Germany). Refolding was achieved by a stepwise buffer exchange using centrifugal cutoff filters (10 kDa; Merck) and decreasing concentrations of urea ([…] in 50 mM HEPES buffer [pH 7.5]). VIM-2 was diluted to a final concentration of 1 nM, and the enzyme activity was measured by adding nitrocefin (Merck) to a final concentration of 50 μM.

[13] = Enterobacter cloacae, KPC-3 strain, read-out: MIC
[14] = Escherichia coli, KPC-3 strain, read-out: MIC
[15] = KPC-2 strains, one value per strain

T2 sequence (C7C422 29-270, looked up): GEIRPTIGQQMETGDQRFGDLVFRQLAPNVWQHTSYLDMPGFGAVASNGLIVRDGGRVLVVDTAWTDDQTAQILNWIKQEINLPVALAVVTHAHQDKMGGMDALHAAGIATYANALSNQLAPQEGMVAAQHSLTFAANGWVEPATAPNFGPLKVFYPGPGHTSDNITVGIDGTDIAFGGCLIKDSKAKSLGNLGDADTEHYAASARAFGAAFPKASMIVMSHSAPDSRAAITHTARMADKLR

SMILES: CN(C[C@H](O)[C@@H](O)[C@H](O)[C@H](O)CO)C(=O)c1ccc(CN(Cc2ccccc2)Cc2ccccc2)nc1 [ZN222]
- meropenem MIC [1]: 32 µg/mL
- meropenem MIC [3]: 32 µg/mL

SMILES: C[C@@H](O)[C@H]1C(=O)N2C(C(=O)O)=C(SCCN=CN)C[C@H]12 [IPM, imipenem]
- MIC ([4]; Enterobacter cloacae, KPC-2 strains, one value per strain, read-out: MIC): 8 µg/mL
- MIC [4, 13]: 16 µg/mL
- MIC [4, 15]: 16 µg/mL
- MIC [5, 14]: 8 µg/mL
- MIC ([6]; NDM-1 + OXA-232 strains): > 64 µg/mL
- MIC ([6]; NDM-5 + OXA-181 strains): > 64 µg/mL
- MIC ([7]; NDM-1 + GES-2 strain): 16 µg/mL
- MIC ([7]; NDM-5 + OXA-48 strain): 32 µg/mL
- MIC ([8]; NDM-1 + OXA-23-like strains): > 64 µg/mL
- MIC [9]: > 64 µg/mL

SMILES: CN(C[C@H](O)[C@@H](O)[C@H](O)[C@H](O)CO)C(=O)c1ccc(CN(Cc2ccccc2)Cc2ccccn2)nc1 [ZN223]
- kinact (VIM-2 [10]): 0.000617 s⁻¹
- kinact/KI (VIM-2 [10]): 11.7 M⁻¹ s⁻¹
- meropenem MIC [1]: 32 µg/mL
- kinact (NDM-1): 0.000633 s⁻¹
- kinact/KI (NDM-1): 1 M⁻¹ s⁻¹
- meropenem MIC [3]: 32 µg/mL

SMILES: CN(C[C@H](O)[C@@H](O)[C@H](O)[C@H](O)CO)C(=O)c1ccc(CN(Cc2ccccn2)Cc2ccccn2)cc1 [ZN228]
- kinact (VIM-2 [10]): 0.000567 s⁻¹
- kinact/KI (VIM-2 [10]): 23.3 M⁻¹ s⁻¹
- meropenem MIC [1]: 32 µg/mL
- kinact (NDM-1): 0.00127 s⁻¹
- kinact/KI (NDM-1): 1.83 M⁻¹ s⁻¹
- meropenem MIC [3]: 32 µg/mL

The next lines start with results.

- meropenem MIC [1]: 1 µg/mL
- meropenem MIC [3]: 0.125 µg/mL
SMILES: c1ccc(CN(Cc2ccccn2)Cc2ccccn2)nc1 [TPA, Tris-picolylamine]
- pKd [2]: 11.00
- pIC50 (HepG2 cells): 5.01

- MIC [4, 13]: 2 µg/mL
- MIC ([5]; Escherichia coli, KPC-2 strains, one value per strain, read-out: MIC): 4 µg/mL
- MIC [5, 14]: 4 µg/mL
- MIC [5, 15]: 2 µg/mL
- MIC ([6]; NDM-1 + OXA-232 strains): > 64 µg/mL
- MIC ([6]; NDM-5 + OXA-181 strains): > 64 µg/mL
- MIC ([7]; NDM-1 + GES-2 strain): 64 µg/mL
- MIC ([7]; NDM-5 + OXA-48 strain): > 64 µg/mL
- MIC ([7]; NDM-5 + OXA-181 strains, one value per strain): 64 µg/mL
- MIC ([7]; NDM-5 + OXA-232 strains, one value per strain): > 64 µg/mL
- MIC ([8]; NDM-1 + OXA-23-like strains): > 64 µg/mL
- MIC ([8]; NDM-1 + OXA-24-like, OXA-58-like strains): > 64 µg/mL
- MIC [9]: > 64 µg/mL
SMILES: C[C@@H](O)[C@H]1C(=O)N2C(C(=O)O)=C(S[C@@H]3CN[C@H](CNS(N)(=O)=O)C3)[C@H](C)[C@H]12 [DOR, doripenem]

- enzyme activity after unfolding and stepwise refolding, of control activity (VIM-2 [12]): > 80%
SMILES: O=C(O)CN(CCN(CC(=O)O)CC(=O)O)CC(=O)O [EDTA]
- MBL activity restored by addition of exogenous zinc, compared to untreated control (VIM-2 [11]): complete or nearly complete (∼80%) restoration of activity

— article PMC7269481, “ZN148 Is a Modular Synthetic Metallo-β-Lactamase Inhibitor That Reverses Carbapenem Resistance in Gram-Negative Pathogens In Vivo” (Antimicrobial Agents and Chemotherapy, 2020)
